In patent US20240425490A1, “SULFAMIDE RIBONUCLEOTIDE REDUCTASE (RNR) INHIBITORS AND USES THEREOF” (Boundless Bio, Inc., priority 2021, published 2024):

Molecular target: T1, RNR (RNR1:RNR2 1:1) (Homo sapiens, UniProt P23921)
T1 sequence (P23921 1-792): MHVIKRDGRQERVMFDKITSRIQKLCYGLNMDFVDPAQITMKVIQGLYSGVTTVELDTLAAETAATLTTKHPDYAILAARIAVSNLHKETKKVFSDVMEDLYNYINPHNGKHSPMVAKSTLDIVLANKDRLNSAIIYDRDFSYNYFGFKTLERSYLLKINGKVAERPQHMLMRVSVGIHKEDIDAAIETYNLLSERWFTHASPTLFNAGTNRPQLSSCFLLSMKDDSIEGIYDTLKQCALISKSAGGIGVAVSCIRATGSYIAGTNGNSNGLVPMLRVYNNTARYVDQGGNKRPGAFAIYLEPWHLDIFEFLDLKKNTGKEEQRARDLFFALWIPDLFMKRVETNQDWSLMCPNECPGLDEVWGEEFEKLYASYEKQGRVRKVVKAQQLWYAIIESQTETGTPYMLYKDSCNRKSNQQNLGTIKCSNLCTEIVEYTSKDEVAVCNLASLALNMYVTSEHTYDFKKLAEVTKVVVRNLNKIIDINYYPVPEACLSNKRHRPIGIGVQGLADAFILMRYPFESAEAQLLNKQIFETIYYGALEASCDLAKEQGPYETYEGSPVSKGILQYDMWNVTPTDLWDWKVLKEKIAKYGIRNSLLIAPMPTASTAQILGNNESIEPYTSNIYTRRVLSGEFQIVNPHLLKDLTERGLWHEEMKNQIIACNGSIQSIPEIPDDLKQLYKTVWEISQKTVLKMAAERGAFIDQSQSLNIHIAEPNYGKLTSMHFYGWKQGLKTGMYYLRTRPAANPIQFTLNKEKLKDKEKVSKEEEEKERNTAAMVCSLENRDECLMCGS
Test: RNR enzyme activity, rapid-fire mass spectrometry (RFMS) assay
Type: biochemical
Details: RNR 50 nM, CDP 5 μM, ATP 1 mM, 37° C., 45 min, compounds screened up to 50 μM, read-out: RF/MS IC50
Outline: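 Human RNR1:RNR2 (1:1, 50 nM) pre-incubated 15 min at room temperature with compound, then reacted with 5 μM CDP and 1 mM ATP, no NADPH, for 45 min at 37 °C. Stopped with 6% HCOOH; turnover read by rapid-fire mass spectrometry; Triapine and hydroxyurea as reference compounds.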

Compound | IC50 [nM]
Cc1ccc(F)c([C@@H](C)[C@H](NS(=O)(=O)N2CCC(c3c[nH]c4ccccc34)CC2)c2n[nH]c(=O)o2)c1C [Example 68, N-((1S,2R)-2-(6-fluoro-2,3-dimethylphenyl)-1-(5-oxo-4,5-dihydro-1,3,4-oxadiazol-2-yl)propyl)-4-(1H-indol-3-yl)piperidine-1-sulfonamide] | 1000 to 10000
Cc1ccc(F)c([C@H](C)[C@H](NS(=O)(=O)N2CCC(c3c[nH]c4ccccc34)CC2)c2n[nH]c(=O)o2)c1C [Example 69, N-((1S,2S)-2-(6-fluoro-2,3-dimethylphenyl)-1-(5-oxo-4,5-dihydro-1,3,4-oxadiazol-2-yl)propyl)-4-(1H-indol-3-yl)piperidine-1-sulfonamide] | 10000 to 100000
Cc1ccc(F)c([C@@H](C)[C@H](NS(=O)(=O)N2CCC(Oc3ccccn3)CC2)c2n[nH]c(=O)o2)c1C [Example 70, N-((1S,2R)-2-(6-fluoro-2,3-dimethylphenyl)-1-(5-oxo-4,5-dihydro-1,3,4-oxadiazol-2-yl)propyl)-4-(pyridin-2-yloxy)piperidine-1-sulfonamide] | 100 to 1000
Cc1ccc(F)c([C@@H](C)[C@H](NS(=O)(=O)N2CCC3(CCCC3)CC2)c2n[nH]c(=O)o2)c1C [Example 71, N-((1S,2R)-2-(6-fluoro-2,3-dimethylphenyl)-1-(5-oxo-4,5-dihydro-1,3,4-oxadiazol-2-yl)propyl)-8-azaspiro[4.5]decane-8-sulfonamide] | 100 to 1000
Cc1ccc(F)c([C@H](C)[C@H](NS(=O)(=O)N2CCC3(CCCC3)CC2)c2n[nH]c(=O)o2)c1C [Example 72, N-((1S,2S)-2-(6-fluoro-2,3-dimethylphenyl)-1-(5-oxo-4,5-dihydro-1,3,4-oxadiazol-2-yl)propyl)-8-azaspiro[4.5]decane-8-sulfonamide] | 1000 to 10000
Cc1ccc(F)c(C(C)[C@H](NS(=O)(=O)N2CCC3(CC2)OCc2ccccc23)c2n[nH]c(=O)o2)c1C (stereo partly drawn) [Example 73, N-((1S)-2-(6-fluoro-2,3-dimethylphenyl)-1-(5-oxo-4,5-dihydro-1,3,4-oxadiazol-2-yl)propyl)-3H-spiro[isobenzofuran-1,4′-piperidine]-1′-sulfonamide] | 100 to 1000
Cc1ccc(F)c(C(C)[C@H](NS(=O)(=O)N2CCC(c3noc4ccc(F)cc34)CC2)c2n[nH]c(=O)o2)c1C (stereo partly drawn) [Example 74, N-((1S)-2-(6-fluoro-2,3-dimethylphenyl)-1-(5-oxo-4,5-dihydro-1,3,4-oxadiazol-2-yl)propyl)-4-(5-fluorobenzo[d]isoxazol-3-yl)piperidine-1-sulfonamide] | 100 to 1000
Cc1ccc(F)c(C(C)[C@H](NS(=O)(=O)N2CCC(NC(=O)C(C)(C)C)CC2)c2n[nH]c(=O)o2)c1C (stereo partly drawn) [Example 75, N-(1-(N-((1S)-2-(6-fluoro-2,3-dimethylphenyl)-1-(5-oxo-4,5-dihydro-1,3,4-oxadiazol-2-yl)propyl)sulfamoyl)piperidin-4-yl)pivalamide] | 1000 to 10000
Cc1ccc(F)c([C@@H](C)[C@H](NS(=O)(=O)N2CCC3(CC2)CC(=O)N(C)C3)c2n[nH]c(=O)o2)c1C [Example 76, N-((1S,2R)-2-(6-fluoro-2,3-dimethylphenyl)-1-(5-oxo-4,5-dihydro-1,3,4-oxadiazol-2-yl)propyl)-2-methyl-3-oxo-2,8-diazaspiro[4.5]decane-8-sulfonamide] | 100 to 1000
Cc1ccc(F)c([C@H](C)[C@H](NS(=O)(=O)N2CCC3(CC2)CC(=O)N(C)C3)c2n[nH]c(=O)o2)c1C [Example 77, N-((1S,2S)-2-(6-fluoro-2,3-dimethylphenyl)-1-(5-oxo-4,5-dihydro-1,3,4-oxadiazol-2-yl)propyl)-2-methyl-3-oxo-2,8-diazaspiro[4.5]decane-8-sulfonamide] | 10000 to 100000
COC(=O)C1(C)CCN(S(=O)(=O)N[C@H](c2n[nH]c(=O)o2)[C@H](C)c2c(F)ccc(C)c2C)CC1 [Example 78, methyl 1-(N-((1S,2R)-2-(6-fluoro-2,3-dimethylphenyl)-1-(5-oxo-4,5-dihydro-1,3,4-oxadiazol-2-yl)propyl)sulfamoyl)-4-methylpiperidine-4-carboxylate] | 100 to 1000
CCCCC1CCN(S(=O)(=O)N[C@H](c2n[nH]c(=O)o2)[C@H](C)c2c(F)ccc(C)c2C)CC1 [Example 79, 4-butyl-N-((1S,2R)-2-(6-fluoro-2,3-dimethylphenyl)-1-(5-oxo-4,5-dihydro-1,3,4-oxadiazol-2-yl)propyl)piperidine-1-sulfonamide] | 1000 to 10000
Cc1ccc(F)c(C(C)[C@H](NS(=O)(=O)N2CCC(N3CCCC3=O)CC2)c2n[nH]c(=O)o2)c1C (stereo partly drawn) [Example 80, N-((1S)-2-(6-fluoro-2,3-dimethylphenyl)-1-(5-oxo-4,5-dihydro-1,3,4-oxadiazol-2-yl)propyl)-4-(2-oxopyrrolidin-1-yl)piperidine-1-sulfonamide] | 1000 to 10000
Cc1ccc(F)c([C@@H](C)[C@H](NS(=O)(=O)N2CCC(C)(C#N)CC2)c2n[nH]c(=O)o2)c1C [Example 81, 4-cyano-N-((1S,2R)-2-(6-fluoro-2,3-dimethylphenyl)-1-(5-oxo-4,5-dihydro-1,3,4-oxadiazol-2-yl)propyl)-4-methylpiperidine-1-sulfonamide] | 100 to 1000
Cc1ccc(F)c([C@H](C)[C@H](NS(=O)(=O)N2CCC(C)(C#N)CC2)c2n[nH]c(=O)o2)c1C [Example 82, 4-cyano-N-((1S,2S)-2-(6-fluoro-2,3-dimethylphenyl)-1-(5-oxo-4,5-dihydro-1,3,4-oxadiazol-2-yl)propyl)-4-methylpiperidine-1-sulfonamide] | 1000 to 10000
Cc1ccc(F)c([C@@H](C)[C@H](NS(=O)(=O)N2CCC3(CCCN(C)C3)CC2)c2n[nH]c(=O)o2)c1C [Example 83, N-((1S,2R)-2-(6-fluoro-2,3-dimethylphenyl)-1-(5-oxo-4,5-dihydro-1,3,4-oxadiazol-2-yl)propyl)-2-methyl-2,9-diazaspiro[5.5]undecane-9-sulfonamide] | 1000 to 10000
Cc1ccc(F)c([C@H](C)[C@H](NS(=O)(=O)N2CCC3(CCCN(C)C3)CC2)c2n[nH]c(=O)o2)c1C [Example 84, N-((1S,2S)-2-(6-fluoro-2,3-dimethylphenyl)-1-(5-oxo-4,5-dihydro-1,3,4-oxadiazol-2-yl)propyl)-2-methyl-2,9-diazaspiro[5.5]undecane-9-sulfonamide] | 10000 to 100000
Cc1ccc(F)c([C@@H](C)[C@H](NS(=O)(=O)N2CCC3(CC2)OCCCO3)c2n[nH]c(=O)o2)c1C [Example 85, N-((1S,2R)-2-(6-fluoro-2,3-dimethylphenyl)-1-(5-oxo-4,5-dihydro-1,3,4-oxadiazol-2-yl)propyl)-1,5-dioxa-9-azaspiro[5.5]undecane-9-sulfonamide] | 100 to 1000
Cc1ccc(F)c([C@H](C)[C@H](NS(=O)(=O)N2CCC3(CC2)OCCCO3)c2n[nH]c(=O)o2)c1C [Example 86, N-((1S,2S)-2-(6-fluoro-2,3-dimethylphenyl)-1-(5-oxo-4,5-dihydro-1,3,4-oxadiazol-2-yl)propyl)-1,5-dioxa-9-azaspiro[5.5]undecane-9-sulfonamide] | 1000 to 10000
Cc1ccc(F)c([C@@H](C)[C@H](NS(=O)(=O)N2CCC3(CCCCC3)CC2)c2n[nH]c(=O)o2)c1C [Example 87, N-((1S,2R)-2-(6-fluoro-2,3-dimethylphenyl)-1-(5-oxo-4,5-dihydro-1,3,4-oxadiazol-2-yl)propyl)-3-azaspiro[5.5]undecane-3-sulfonamide] | 100 to 1000
Cc1ccc(F)c([C@H](C)[C@H](NS(=O)(=O)N2CCC3(CCCCC3)CC2)c2n[nH]c(=O)o2)c1C [Example 88, N-((1S,2S)-2-(6-fluoro-2,3-dimethylphenyl)-1-(5-oxo-4,5-dihydro-1,3,4-oxadiazol-2-yl)propyl)-3-azaspiro[5.5]undecane-3-sulfonamide] | 1000 to 10000
Cc1ccc(F)c(C(C)[C@H](NS(=O)(=O)N2CCC(O)(C(F)(F)F)CC2)c2n[nH]c(=O)o2)c1C (stereo partly drawn) [Example 89, N-((1S)-2-(6-fluoro-2,3-dimethylphenyl)-1-(5-oxo-4,5-dihydro-1,3,4-oxadiazol-2-yl)propyl)-4-hydroxy-4-(trifluoromethyl)piperidine-1-sulfonamide] | 100 to 1000
Cc1ccc(F)c(C(C)[C@H](NS(=O)(=O)N2CCC(c3ncc[nH]3)CC2)c2n[nH]c(=O)o2)c1C (stereo partly drawn) [Example 90, N-((1S)-2-(6-fluoro-2,3-dimethylphenyl)-1-(5-oxo-4,5-dihydro-1,3,4-oxadiazol-2-yl)propyl)-4-(1H-imidazol-2-yl)piperidine-1-sulfonamide] | 1000 to 10000
Cc1ccc(F)c(C(C)[C@H](NS(=O)(=O)N2CCC3(CCOCC3)CC2)c2n[nH]c(=O)o2)c1C (stereo partly drawn) [Example 91, N-((1S)-2-(6-fluoro-2,3-dimethylphenyl)-1-(5-oxo-4,5-dihydro-1,3,4-oxadiazol-2-yl)propyl)-3-oxa-9-azaspiro[5.5]undecane-9-sulfonamide] | 100 to 1000
